In brackets after ≈: the same amount, converted by molar mass.

The values below come from ChEMBL document CHEMBL5126562, “Surprising lipophilicity observations identify unexpected conformational effects” (Bioorg Med Chem Lett, 2022).

A short description of series [1]: Solubility of compound at pH 7.4. The class given is physicochemical. Conditions: buffer.
Series [2] is described as follows: Lipophilicity, logD of compound at pH 7.4. Format: physicochemical. Conditions: buffer.

Consider `O=C([C@@H]1C[C@H]1c1cccc(N2CCCC2=O)c1)N1CCN(C2CCC2)CC1`, for which the solubility – broadly, how much of the substance goes into solution per volume – in series [1] was above 4140 µM. In addition, the logD (as a rule, lipophilicity at a set pH, counting ionised and neutral species) in series [2] came to 2.
The corresponding values for `COCC(=O)N1CCC(COc2ccc(N3CCCC3=O)cc2)C1` (stereo unspecified) are 271 µM (≈ 90.1 µg/mL) and 0.2.
On to `Cc1nc(Nc2cccc(N3CCCCC3=O)n2)sc1-c1cc2c(c(S(=O)(=O)NC3COC3)c1)C(=O)N([C@@H](C)C1CC1)C2`, for which the concentration in solution in series [1] (solubility) came to 1.8 µM (≈ 1.12 µg/mL). In series [2], this compound registered a logD of 3.6.
The like results for `N#Cc1cccc2ncn(CC(=O)NCc3ccc(C(F)(F)F)nc3N3CCCCC3=O)c12` were, in that order, above 200 µM and 1.8.
The corresponding values for `O=C([C@H]1C[C@@H]1c1cccc(N2CCCCC2=O)c1)N1CCN(C2CCC2)CC1` are 2190 µM (≈ 837 µg/mL) and 1.7.
The corresponding values for `Cc1nc(Nc2cccc(N3CCCCC3=O)n2)sc1-c1cc2c(c(S(=O)(=O)NC3COC3)c1)C(=O)N([C@@H](C)C(F)(F)F)C2` are 3 µM (≈ 1.95 µg/mL) and 3.8.
`CC(=O)N1CCc2cc(-c3cccc4c3CCCC4)cc(N3CCCCC3=O)c21` gave a solubility in series [1] of 259 µM (≈ 101 µg/mL). The compound further registered a logD in series [2] of 3.8.
Take `Cc1nc(Nc2cccc(N3CCOC3=O)n2)sc1-c1cc2c(c(S(=O)(=O)NC3COC3)c1)C(=O)N([C@@H](C)C1CC1)C2`: the solubility in series [1] is 0.021 µM (≈ 0.0128 µg/mL). In series [2], this compound had a logD above 4.
Compound `O=C1CCCN1c1cnc(NCc2c(F)ccc3c2CCO3)c2cn[nH]c(=O)c12` gave a logD in series [2] of 1.8.
On to `N#Cc1cccc2ncn(CC(=O)NCc3ccc(C(F)(F)F)nc3N3CCCC3=O)c12`, for which, in series [1], the solubility was above 2400 µM. Moreover, in series [2], the logD came out at 1.8.
The corresponding values for `O=C([C@@H]1C[C@H]1c1cccc(N2CCCCC2=O)c1)N1CCN(C2CCC2)CC1` are above 3000 µM and 1.6.
The like results for `Cc1nc(Nc2cccc(N3CCCC3=O)n2)sc1-c1cc2c(c(S(C)(=O)=O)c1)C(=O)N([C@@H](C)C1CC1)C2` [AZD-8154] were, in that order, 0.054 µM (≈ 0.0298 µg/mL) and 4.4.
Compound `Cc1nc(Nc2cccc(N3CCCC3=O)n2)sc1-c1cc2c(c(S(=O)(=O)NC3COC3)c1)C(=O)N([C@@H](C)C(F)(F)F)C2` had a solubility in series [1] of 0.081 µM (≈ 0.0516 µg/mL). In series [2], the logD is above 4.
As to `CN1CCN(c2ccc(F)cc2CN2CCCN(c3ccc(N4CCOCC4)cc3)C2=O)CC1`, the concentration in solution in series [1] (solubility) came to 387 µM (≈ 181 µg/mL). Further, the logD in series [2] came to 1.6.
Compound `O=C1CCCCN1c1cnc(NCc2c(F)ccc3c2CCO3)c2cn[nH]c(=O)c12` registered a solubility in series [1] of 18 µM (≈ 7.37 µg/mL). Moreover, the logD in series [2] amounted to 1.9.
The corresponding values for `COCC(=O)N1CCC(COc2ccc(N3CCCCC3=O)cc2)C1` (stereo unspecified) are above 3970 µM and -0.1.
The corresponding values for `CN1CCN(c2cnc(NCc3c(F)ccc4c3CCO4)n3cnnc23)C1=O` are 641 µM (≈ 246 µg/mL) and 1.4.
In series [2], `O=C1CCCN1c1cnc(NCc2c(F)ccc3c2CCO3)n2cnnc12` gave a logD of 1.3.
In the case of `O=C1CCCN1c1cccc(C(=O)N(c2ncccc2Cl)[C@@H]2CCCNC2)c1`, in series [1], the concentration in solution (solubility) came to 67 µM (≈ 26.7 µg/mL). Moreover, the logD in series [2] was -0.5.
The corresponding values for `CS(=O)(=O)c1ccc(CNC(=O)C2CCN(c3cccc(C(F)(F)F)c3)C2=O)cc1` (stereo unspecified) are 15 µM (≈ 6.61 µg/mL) and 2.1.
The like results for `CC(=O)N1CCc2cc(-c3cccc4c3CCCC4)cc(N3CCCC3=O)c21` were, in that order, 271 µM (≈ 101 µg/mL) and 3.5.
The like results for `O=C1CCCCN1c1cnc(NCc2c(F)ccc3c2CCO3)n2cnnc12` were, in that order, 351 µM (≈ 134 µg/mL) and 1.3.
In series [1], `O=C(C1CC1c1ccc(N2CCCC2=O)cc1)N1CCN(C2CCC2)CC1` (stereo unspecified) registered a solubility above 2680 µM. Besides, the logD in series [2] was determined as 2.
In turn, `Cc1nc(Nc2cccc(N3CCCCC3=O)n2)sc1-c1cc2c(c(S(C)(=O)=O)c1)C(=O)N([C@@H](C)C1CC1)C2` had a solubility in series [1] of 6.3 µM (≈ 3.56 µg/mL). In addition, the logD in series [2] is 3.9.
The like results for `CS(=O)(=O)c1ccc(CNC(=O)C2CCCN(c3cccc(C(F)(F)F)c3)C2=O)cc1` (stereo unspecified) were, in that order, 94 µM (≈ 42.7 µg/mL) and 1.5.
The like results for `COc1ccc(N2CCN(C)CC2)c(CN2CCN(c3ccc(N4CCOCC4)cc3)C2=O)c1` were, in that order, 456 µM (≈ 212 µg/mL) and 1.8.
The corresponding values for `CN1CCCN(c2cnc(NCc3c(F)ccc4c3CCO4)n3cnnc23)C1=O` are 153 µM (≈ 60.8 µg/mL) and 1.2.
Regarding `Cc1nc(Nc2cccc(N3CCN(C)C3=O)n2)sc1-c1cc2c(c(S(C)(=O)=O)c1)C(=O)N([C@@H](C)C1CC1)C2`, the solubility in series [1] was below 0.045 µM. The logD in series [2] turned out to be 3.4.
The like results for `Cc1nc(Nc2cccc(N3CCCN(C)C3=O)n2)sc1-c1cc2c(c(S(C)(=O)=O)c1)C(=O)N([C@@H](C)C1CC1)C2` were, in that order, below 0.14 µM and 3.5.
Consider `COc1ccc(N2CCN(C)CC2)c(CN2CCCN(c3ccc(N4CCOCC4)cc3)C2=O)c1`, for which the solubility in series [1] was determined as 404 µM (≈ 194 µg/mL). Also, the logD in series [2] is 1.3.
In the case of `CN1CCN(c2ccc(F)cc2CN2CCN(c3ccc(N4CCOCC4)cc3)C2=O)CC1`, the solubility in series [1] was 189 µM (≈ 85.7 µg/mL). In series [2], this compound displayed a logD of 2.1.
For the compound `O=C1CCCCN1c1cccc(C(=O)N(c2ncccc2Cl)[C@@H]2CCCNC2)c1`, the solubility in series [1] is above 973 µM. In series [2], this compound came in with a logD of -0.9.
The corresponding values for `C[C@]1(CS(=O)(=O)N2CC=C(C#Cc3cccc(N4CCCC4=O)c3)CC2)NC(=O)NC1=O` are 94 µM (≈ 42.9 µg/mL) and 1.5.
In the case of `C[C@]1(CS(=O)(=O)N2CC=C(C#Cc3cccc(N4CCCCC4=O)c3)CC2)NC(=O)NC1=O`, the solubility in series [1] amounted to 89 µM (≈ 41.9 µg/mL). This compound showed a logD in series [2] of 1.
